Data on 13 compounds can be found in US12145914B2, “Compound having oxadiazole and pharmaceutical composition containing the same” (SK BIOPHARMACEUTICALS CO., LTD., priority 2018, dated 2024).

The subject of this experiment is focal onset seizures induced by electrostimulation of 44 mA, 6 Hz, 3 sec in ICR mouse. Nature of the experiment: 6 Hz method for screening anticonvulsants (6 Hz, 44 mA electrostimulation). Conditions: male ICR mice, intraperitoneal (ip), electrostimulation 44 mA, 3 sec to the eye, number of non-seizure animals/number of animals used. The format is in vivo. An excerpt: The utility of the compounds according to the present invention as an anticonvulsant agent has been investigated by the 6 Hz method, which has been well established as pharmacological screening methods of convulsant agents for focal onset seizures. The procedure of the 6 Hz method for screening anticonvulsant was as follows:
1) Preparation of Experimental Animals
Male ICR mice are purchased from Orient Bio, Inc. of Korea, and are stored and managed according to laboratory animal management standards of the Institutional Animal Care and Use Committee (IACUC) by putting the same in a wire net cage under an environment in which an ambient temperature of 19 to 25° C., 40 to 60% relative humidity and 12 hour periods of light/dark were auto-controlled, and water was freely taken. After stabilization for a week, mice with a body weight of 18 to 23 g were used in the experiment.
2) Evaluation of the Anticonvulsant Effect of a Compound
5% Tetracaine (Sigma) was added to both eyes to provide a local anesthetic effect at 5 to 10 minutes before the period of electrical stimulation at the animal ICR mouse. The compounds to be tested were dissolved in distilled water in which 30% polyethylene glycol 300+5% dimethylsulfoxide+5% Cremophor was dissolved and administered intraperitoneally (ip) to the animal at a dosage volume of 10 mL/kg. Then, electrostimulation of 44 mA, 6 Hz, and 3 sec was applied to the eye to induce focus-generating seizures. After the electrical stimulation, the presence of seizures due to drug effects was confirmed, and the ratio of animals showing no seizures was expressed as a protection rate (the number of non-seizure animals/the number of animals used in experiments=protection rate). […]

`COC(Cc1nnc(C)o1)c1cccc(-c2ccc(C(F)(F)F)cc2)c1` (stereo not shown) [Example 56, 2-[2-methoxy-2-[3-[4-(trifluoromethyl)phenyl]phenyl]ethyl]-5-methyl-1,3,4-oxadiazole]: the “6 Hz, 44 mA protection rate” value is “++ (0.6 to 0.8 are scored as ‘++’)”.

In the case of `Cc1nnc(CC(O)c2cccc(OCCCC(F)(F)F)c2)o1` (stereo not shown) [Example 19, 2-(5-methyl-1,3,4-oxadiazol-2-yl)-1-[3-(4,4,4-trifluorobutoxy)phenyl]ethanol], the “6 Hz, 44 mA protection rate” value is given as “+ (0.2 to 0.6 are scored as ‘+’)”.

As for `Cc1nnc(CC(OC(N)=O)c2cc(OCCCC(F)(F)F)ccc2F)o1` (stereo not shown) [Example 16, [1-[2-fluoro-5-(4,4,4-trifluorobutoxy)phenyl]-2-(5-methyl-1,3,4-oxadiazol-2-yl)ethyl] carbamate], the “6 Hz, 44 mA protection rate” value is reported as “++ (0.6 to 0.8 are scored as ‘++’)”.

`Cc1nnc(CC(OC(N)=O)c2cc(-c3ccc(Cl)cc3)ccc2F)o1` (stereo not shown) [Example 4, [1-[5-(4-chlorophenyl)-2-fluoro-phenyl]-2-(5-methyl-1,3,4-oxadiazol-2-yl)ethyl] carbamate]: the “6 Hz, 44 mA protection rate” value is given as “++ (0.6 to 0.8 are scored as ‘++’)”.

As for `Cc1nnc(CC(OC(N)=O)c2cc(OCC(F)(F)F)ccc2F)o1` (stereo not shown) [Example 18, [1-[2-fluoro-5-(2,2,2-trifluoroethoxy)phenyl]-2-(5-methyl-1,3,4-oxadiazol-2-yl)ethyl] carbamate], the “6 Hz, 44 mA protection rate” value was “+ (0.2 to 0.6 are scored as ‘+’)”.

Regarding `Cc1nnc(CC(OC(N)=O)c2cc(-c3ccc(C(F)(F)F)cc3)ccc2F)o1` (stereo not shown) [Example 3, [1-[2-fluoro-5-[4-(trifluoromethyl)phenyl]phenyl]-2-(5-methyl-1,3,4-oxadiazole-2-yl)ethyl] carbamate], the “6 Hz, 44 mA protection rate” value was “++ (0.6 to 0.8 are scored as ‘++’)”.

For `CC[C@@H](C(N)=O)N1CCCC1=O` [Levitiracetam, (S)-α-ethyl-2-oxo-1-pyrrolidine acetamide, reference compound], the “6 Hz, 44 mA protection rate” value is reported as “− (the protection rates 0 to 0.2 are scored as ‘−’)”.

Take `OC(Cc1nnco1)c1cccc(-c2ccc(C(F)(F)F)cc2)c1` (stereo not shown) [Example 52, 2-(1,3,4-oxadiazol-2-yl)-1-[3-[4-(trifluoromethyl)phenyl]phenyl]ethanol]: the “6 Hz, 44 mA protection rate” value is “+ (0.2 to 0.6 are scored as ‘+’)”.

With `Cc1nnc(CC(OC(N)=O)c2cccc(-c3ccc(F)cc3)c2)o1` (stereo not shown) [Example 72, [1-[3-(4-fluorophenyl)phenyl]-2-(5-methyl-1,3,4-oxadiazol-2-yl)ethyl] carbamate], the “6 Hz, 44 mA protection rate” value was “+ (0.2 to 0.6 are scored as ‘+’)”.

Regarding `Cc1nnc(CC(O)c2cc(C(=O)NCCC(F)(F)F)ccc2F)o1` (stereo not shown) [Example 37, 4-fluoro-3-[1-hydroxy-2-(5-methyl-1,3,4-oxadiazol-2-yl)ethyl]-N-(3,3,3-trifluoropropyl)benzamide], the “6 Hz, 44 mA protection rate” value is listed as “+ (0.2 to 0.6 are scored as ‘+’)”.

With `Cc1nnc(CC(O)c2cc(-c3ccc(C(F)(F)F)cc3)ccc2C)o1` (stereo not shown) [Example 42, 2-(5-methyl-1,3,4-oxadiazol-2-yl)-1-[2-methyl-5-[4-(trifluoromethyl)phenyl]phenyl]ethanol], the “6 Hz, 44 mA protection rate” value is listed as “++ (0.6 to 0.8 are scored as ‘++’)”.

In the case of `NC(=O)OC(Cc1nnco1)c1cc(OCCCC(F)(F)F)ccc1F` (stereo not shown) [Example 24, [1-[2-fluoro-5-(4,4,4-trifluorobutoxy)phenyl]-2-(1,3,4-oxadiazol-2-yl)ethyl] carbamate], the “6 Hz, 44 mA protection rate” value is reported as “++ (0.6 to 0.8 are scored as ‘++’)”.

As to `Cc1nnc(CC(OC(N)=O)c2cc(-c3ccc(C(F)(F)F)cc3)ccc2Cl)o1` (stereo not shown) [Example 50, [1-[2-chloro-5-[4-(trifluoromethyl)phenyl]phenyl]-2-(5-methyl-1,3,4-oxadiazol-2-yl)ethyl] carbamate], the “6 Hz, 44 mA protection rate” value was “++ (0.6 to 0.8 are scored as ‘++’)”.
